Series [1] relates to mouse adult neural stem cells. The note with it: for cell protection and differentiation of NSC under amyloid-beta cytotoxicity: 10 μM amyloid-beta, second day of culture; for concentration at which differentiation-inducing effect starts: no amyloid-beta, day 2 of culture. The protocol:
NSC were isolated from the subventricular zone of week 8 mouse brain, treated with 20 ng/ml human basic fibroblast growth factor (bFGF) and 20 ng/ml human epidermal growth factor (EGF) in an IPM medium, and cultured as a suspension in 24-well plates for 7 days.
Two days before the isolation of single cells, 6-well plates were prepared by treating the wells with 10 μg/ml poly-L-ornithine solution and incubating overnight at room temperature for coating. The next day, poly-L-ornithine solution was removed and the plates were washed 3 times with sterilized triple distilled water. […] The culture solution used is N2 culture medium (supplemented with 20 ng/ml bFGF and 20 ng/ml EGF). Right before seeding, the coating solution was suctioned out, and the single cells were uniformly seeded into the culture plate before the plate dried up. Cells were allowed to attach to the plates for about one minute, and after checking that cells were sufficiently attached, an additional 1.5 ml of culture medium (N2 culture medium with 20 ng/ml bFGF and 20 ng/ml EGF) was added to the cells and cultured in a 37° C. incubator for 24 hours.
Wells not treated with amyloid-beta were left to use as negative controls.
Gibco's (Waltham, Mass.) human Aβ (1-42) was purchased to use for the amyloid-beta (Aβ), and the following process was followed to create oligomers. […] Then, it was dried for 10 minutes in a speed Vac, after which DMSO (Sigma, cat #.D2650) was added to bring the concentration to 5 mM and then lightly vortexed at room temperature for 10 minutes. […] The solution was incubated at 4° C. for 24 hours and then added into the cultured cells.
The NCSs were cultured with the daily addition of EGF, bFGF, amyloid-beta, and test materials for 4 days.

Series [2] has as its system mouse embryonic neural stem cells. The series can be described thus: Immunocytochemistry analysis (Tuj1/DAPI staining). The format is cell-based. The note with it: 4 days. As to the method: Tuj1 (Neuron specific class III beta-tubulin) is a neuron specific marker protein, which was conjugated to rhodamine to show fluorescent red, while DAPI binds to the cell DNA and stains the cell nuclei fluorescent blue. […] The medium was removed and the cells were washed with PBS. After fixing with 10% formaldehyde (Sigma cat #. HT501128) at room temperature for 10 minutes, they were washed again with PBS. They were permeabilized with 0.2% Triton X-100 (Sigma, cat #. 93443) at room temperature for 15 minutes, washed with PBS, and incubated with 10% BSA (Sigma, cat #. A2153)+1% normal goat serum (Vector lab, Burlingame, Calif., cat #. S1000) at room temperature for 1 hour. […] The solution was removed, washed with PBS, and incubated at room temperature for 1 hour with the secondary antibody (rhodamine-conjugated antibody) diluted in 1% BSA+1% normal goat serum at a ratio of 1:200. Then, the cells were washed with PBS, incubated with 5 μg/ml DAPI (Sigma, cat #. D9542) for 5 minutes, washed with PBS again, and mounted on a slide glass for analysis with a fluorescent microscope.

The conditions of series [3]: cited from earlier work.
In series [4] the test system is mouse embryonic neural stem cells. Kind of series: Morphology analysis (phase-contrast) of NSC differentiation in mouse embryonic neural stem cells. It counts as cell-based. To be noted: 1.0 μM and 10 μM; day 2 of culture. The protocol: Neural stem cells were isolated from the brain of a day 14.5 mouse embryo, treated with 10 ng/ml human basic fibroblast growth factor (bFGF) (Peprotech, Princeton, NG, cat #0.100-18B) and 20 ng/ml human epidermal growth factor (EGF) (Peprotech, cat #. AF-100-15) in a N2 culture medium, and cultured in suspension in a 25 cm2 flask (Nunc, Pittsburgh, Pa.) for 4 days. Formation of neurospheres was observed after 2 days.
In order to isolate single cells, 6-well plates were prepared the day before by treating the wells with 15 μg/ml poly-L-ornithine (Sigma, St. Louis, Mo., cat #.P2533) solution and incubating overnight at 37° C. for coating. The day of the single cell isolation, poly-L-ornithine solution was removed, the plates were washed with PBS three times, and 10 μg/ml fibronectin (Gibco, Waltham, Mass., cat #. 33016015) solution was added and incubated at 37° C. for 2 hours for coating.
Various concentrations of the compound of [Formula 1]
FIG. 10b is the analysis of Tuj1 mRNA expression in the cells of each group.

For the next series, the target named is MEK1 (Homo sapiens (Human), UniProt Q02750). The note with it: cited from earlier work.

Entries after “also recorded” stand apart in the source; their conditions may differ. Where two headings read alike, the source gives them in different places.

Chain of MEK1 (Q02750 whole entry, species assumed): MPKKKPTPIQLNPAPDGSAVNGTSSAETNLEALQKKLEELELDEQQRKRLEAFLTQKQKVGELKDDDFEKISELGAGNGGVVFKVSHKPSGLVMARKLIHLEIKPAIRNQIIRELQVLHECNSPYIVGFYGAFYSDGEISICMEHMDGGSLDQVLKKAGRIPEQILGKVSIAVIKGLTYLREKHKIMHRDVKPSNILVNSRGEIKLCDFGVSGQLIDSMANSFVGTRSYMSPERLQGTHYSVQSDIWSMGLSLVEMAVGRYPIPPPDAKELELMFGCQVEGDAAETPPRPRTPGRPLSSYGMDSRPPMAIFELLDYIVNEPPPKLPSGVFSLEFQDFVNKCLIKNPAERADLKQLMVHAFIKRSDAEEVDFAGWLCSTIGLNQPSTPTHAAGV

Turning to `O=C(NC[C@H](O)CO)c1ccncc1Nc1ccc(I)cc1F` [AS703026, pimasertib], the “cell protection and differentiation of NSC under amyloid-beta cytotoxicity” value (from here on “cell protection and differentiation”) in series [1] (compound 10 μM) is “provided cell protection and induced the differentiation of NSC”. In series [1] (trametinib 10 nM and 100 nM, AS703026 10 μM, 4 days), the cell toxicity entry is on record as “did not elicit cell toxicity”. Besides, the “neuron differentiation (Tuj1 staining)” value in series [2] (0.1 μM) is reported as “no differentiation was observed”; in series [2] (1.0 μM), “neuron differentiation occurs at this concentration, albeit only to a marginal extent”. Further, the “expression of phosphorylated ERK in the mouse brain” value in series [3] is recorded as “decrease the expression of phosphorylated ERK”. Further, the “crossing of the blood brain barrier” value in series [3] (mouse) is reported as “effectively cross the BBB”.

`Cc1cc(C(=O)NOCCO)c(Nc2ccc(I)cc2F)n(C)c1=O` [AZD8330]: the “cell protection and differentiation” value in series [1] (compound 1 μM) is “provided cell protection and induced the differentiation of NSC”.

Consider `O=C(NOCC1CC1)c1ccc(F)c(F)c1Nc1ccc(I)cc1Cl` [PD184352], for which, in series [4], the cell death result is “all the cells died”.

Regarding `O=C(NOCC(O)CO)c1cc(Br)c(F)c(F)c1Nc1ccc(I)cc1F` (stereo not drawn) [PD318088], the “cell protection and differentiation” value in series [1] (compound 1 μM) is “provided cell protection and induced the differentiation of NSC”.

For `O=C(NOC[C@H](O)CO)c1ccc(F)c(F)c1Nc1ccc(I)cc1F` [PD0325901], in series [1] (0.1 μM to 10 μM, day 2), the “differentiation-inducing effect (morphology)” value is “excellent inducing effect”. Also, in series [1], the “concentration at which differentiation-inducing effect starts” value was 0.1 µM.

As to `CNS(=O)(=O)Nc1nccc(Cc2c(C)c3ccc(Oc4ncccn4)cc3oc2=O)c1F` [RO5126766], in series [1], the “concentration at which differentiation-inducing effect starts” value was 1.0 µM.

As to `N#CC(=C(/N)Sc1ccccc1N)/C(C#N)=C(\N)Sc1ccccc1N` [U0126], the cell proliferation result in series [1] (0.1 μM and 1.0 μM, day 2) is “inhibition of cell proliferation”. Also, the “differentiation-inducing effect (morphology)” value in series [1] (2.5 μM, day 2) was “did not show any clear differentiation-inducing effect”. Besides, the cell cytotoxicity result in series [1] (10 μM, day 2) was “cell cytotoxicity”. The “NSC differentiation-inducing effect (morphology)” value in series [1] (all concentrations tested, day 2) was “failed to show any NSC differentiation-inducing effect”.

As to `O=C(c1ccc(F)c(F)c1Nc1ccc(I)cc1F)N1CC(O)([C@@H]2CCCCN2)C1` [cobimetinib], the “differentiation of adult NSC (morphology)” value in series [1] (10 μM, regardless of whether amyloid-beta was added, second day) is “did not induce the differentiation of adult NSC; also recorded: does not induce the differentiation of mouse adult neural stem cells”. Besides, the “selectivity toward MEK1 compared with MEK2” value at MEK1 was not below 100 ×.

For `CC12CC3CC(C)(C1)CC(N)(C3)C2` [memantine], in series [1] (5 μM and 10 μM, 4 days), the “cell death of neural stem cells” value was “death of neural stem cells” and the “differentiation of NSC into neurons (morphology)” value is given as “not observed”.

`COc1cc(F)c(F)c(Nc2ccc(I)cc2F)c1NS(=O)(=O)C1(C[C@H](O)CO)CC1` [refametinib]: the “cell protection and differentiation” value in series [1] (compound 1 μM) was “provided cell protection and induced the differentiation of NSC”.

Turning to BI847325, in series [1] (1.0 nM and 10 nM, day 2), the cell proliferation result is recorded as “somewhat inhibited” and the “differentiation-inducing effect (morphology)” value was “not observed”. In addition, the “differentiation-inducing effect (morphology)” value in series [1] (0.1 μM, day 2) is “only a weak differentiation-inducing effect”.

The values are drawn from patent US11701360B2, “Composition for inducing differentiation and protection of neural stem cells and method for inducing neuro-regeneration using the same composition” (GENUV Inc., priority 2017, dated 2023).
